Source: ChEMBL document CHEMBL1133169, “A light-inactivated antibiotic” (2000)

What was measured:
[1] = molecular target: Beta-lactamase TEM (Escherichia coli) (UniProt P62593); assay: The turnover kinetic parameter (kcat) evaluated for Class A TEM-1 beta-lactamase
[2] = molecular target: Beta-lactamase TEM (Escherichia coli) (UniProt P62593); assay: The turnover kinetic parameter (kcat/Km) evaluated for class A TEM-1 Beta-latctamase
[3] = The turnover kinetic parameter (kcat) evaluated for class C Q908R Beta-latctamase
[4] = The turnover kinetic parameter (kcat/Km) evaluated for class C Q908R Beta-latctamase
[5] = The turnover kinetic parameter (Km) evaluated for Class C Q908R Beta-lactamase

Sequence of Beta-lactamase TEM (Escherichia coli) (P62593 whole entry): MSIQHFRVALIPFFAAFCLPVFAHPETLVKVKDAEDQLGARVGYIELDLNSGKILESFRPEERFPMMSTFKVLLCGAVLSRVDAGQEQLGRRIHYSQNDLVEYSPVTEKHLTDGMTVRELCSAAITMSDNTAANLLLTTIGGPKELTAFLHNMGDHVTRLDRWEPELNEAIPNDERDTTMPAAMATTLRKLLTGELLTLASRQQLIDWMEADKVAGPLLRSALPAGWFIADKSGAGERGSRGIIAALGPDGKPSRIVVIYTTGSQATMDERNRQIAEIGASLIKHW

CC(=O)OCC1=C(C(=O)O)N2C(=O)[C@@H](NC(=O)[C@@H](Cc3ccccc3)NNC(=O)OCc3ccccc3[N+](=O)[O-])C2SC1 (stereo not given in full)
k cat [1]: 7.4 s⁻¹ | k cat/Km [2]: 93000 M⁻¹ s⁻¹ | k cat [3]: 1770 s⁻¹ | k cat/Km [4]: 2.8e+07 M⁻¹ s⁻¹ | Km [5]: 62 µM
